Consider 19 compounds from patent US11312719B2, “9-substituted amino triazolo quinazoline derivatives as adenosine receptor antagonists, pharmaceutical compositions and their use” (Merck Sharp & Dohme Corp., priority 2018, dated 2022).

One assay concerns the target human A2A receptors (Homo sapiens (Human), UniProt P29274). The assay can be described thus: A2A antagonism in cAMP cell-based assay (LANCE cAMP, HEK293). As to conditions: HEK293 cells expressing human A2A receptor. The protocol: (§1) Measurement of A2A and A2B Antagonism in cAMP Cell-Based Assay
(§2) The ability of compounds to antagonize human A2A and A2B adenosine receptors was determined using a kit to measure changes in intracellular cyclic AMP levels (LANCE cAMP 384 Kit, Perkin Elmer, Cat. No. AD0264). HEK293 cells recombinantly expressing either human A2A or A2B receptors, previously frozen in Recovery Medium (Life Technologies, Cat. No. 12648-010) were thawed and diluted into stimulation buffer (HBSS (Hyclone SH 30268.01), 5 mM HEPES (Gibco 15630-106), 200 nM rolipram (Tocris, Cat. No. 0905), and 1.5% (V/v) BSA stabilizer (kit component). The cell suspension was centrifuged at 200×g for 10 min and then resuspended in stimulation buffer, supplemented with a 1:10 000 dilution of Alexa Fluor 647 anti-cAMP antibody, to a density of 6.0×10^5 cells/mL. A Labcyte Echo 550 acoustic dispenser was used to transfer up to 25 nL of test compound dissolved in DMSO into the wells of a dry Optiplate-384 plate (Perkin Elmer, Cat. No. 6008289). All subsequent liquid additions were performed using a multichannel pipettor. Next, 5 μL of the cell suspension was added to the wells of the Optiplate-384 and incubated for 30 min. at 37° C. and 5% CO2 in a humidified environment. After this time 5 μL of either 300 nM or 600 nM adenosine (Sigma Cat. No. A9251) for A2A and A2B respectively was added and incubated for 30 minutes at 37° C. and 5% CO2 in a humidified environment. At this time detection mix was prepared by combining the LANCE Eu-W8044 labeled streptavidin and Biotin-cAMP in detection buffer according to the manufacturers protocol. 10 μL of the detection mix was added to each well of the Optiplate-384 which was covered with a plate seal and incubated under ambient conditions for 2 hours prior to reading the plate using an Envision (Perkin Elmer, Waltham, Mass.) multimode plate reader. Data was normalized by defining minimal effect as stimulation in the presence of 0.25% (v/v) DMSO and maximal effect as stimulation in the presence of 1 μM ZM241385 (Cayman, Cat. No. 1036). Curve fitting of the percent effect data versus the log of compound concentration used a 4-parameter concentration response curve fitting algorithm to calculate IC50 values. Compound concentrations tested were 10,000, 3,333, 1,111, 370.4, 123.4, 41.2, 13.7, 4.6, 1.5 and 0.5 nM with 0.25% residual DMSO.
(In general: Time-resolved FRET reads energy transfer from a long-lived donor to a nearby acceptor.)

The next assay concerns the target human A2B receptors (Homo sapiens (Human), UniProt P29275). The assay can be described thus: A2B antagonism in cAMP cell-based assay (LANCE cAMP, HEK293). As to conditions: HEK293 cells expressing human A2B receptor. The protocol:
as §1, §2

human A2A receptors, sequence (P29274 whole entry): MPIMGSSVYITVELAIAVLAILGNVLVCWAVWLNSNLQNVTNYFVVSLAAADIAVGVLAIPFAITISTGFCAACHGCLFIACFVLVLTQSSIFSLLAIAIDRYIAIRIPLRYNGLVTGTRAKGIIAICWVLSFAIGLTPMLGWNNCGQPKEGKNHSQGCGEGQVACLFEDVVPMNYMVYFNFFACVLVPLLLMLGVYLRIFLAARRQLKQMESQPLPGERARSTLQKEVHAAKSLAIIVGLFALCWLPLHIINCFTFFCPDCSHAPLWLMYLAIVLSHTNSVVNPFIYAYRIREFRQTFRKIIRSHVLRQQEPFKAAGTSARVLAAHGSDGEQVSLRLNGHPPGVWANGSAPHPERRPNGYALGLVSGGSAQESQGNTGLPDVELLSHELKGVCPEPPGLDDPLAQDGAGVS
human A2B receptors, sequence (P29275 whole entry): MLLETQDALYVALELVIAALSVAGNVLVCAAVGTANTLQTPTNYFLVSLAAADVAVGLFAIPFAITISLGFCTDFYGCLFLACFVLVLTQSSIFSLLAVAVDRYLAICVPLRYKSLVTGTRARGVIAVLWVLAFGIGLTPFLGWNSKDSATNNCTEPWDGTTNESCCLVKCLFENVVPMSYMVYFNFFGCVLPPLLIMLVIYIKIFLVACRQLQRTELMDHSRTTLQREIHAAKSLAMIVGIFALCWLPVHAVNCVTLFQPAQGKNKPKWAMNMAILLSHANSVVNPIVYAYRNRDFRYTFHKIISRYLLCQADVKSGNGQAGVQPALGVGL

As to `Cc1nn(CC(C)(C)O)cc1N1CC(C)CC(c2nc3c4cc(F)cc(F)c4nc(N)n3n2)C1` (single isomer, unassigned) [Example 167, 1-(4-((3R,5S or 3S,5R)-3-(5-amino-7,9-difluoro-[1,2,4]triazolo[1,5-c]quinazolin-2-yl)-5-methylpiperidin-1-yl)-3-methyl-1H-pyrazol-1-yl)-2-methylpropan-2-ol], the IC50 against human A2A receptors worked out at 0.0006 µM; against human A2B receptors it was 0.046 µM.
With `COc1cc2nc(N)n3nc(C4CC(C)CN(c5cn(C(C)(C)CO)nc5C)C4)nc3c2cc1F` (racemic) [Example 155, racemic, trans-2-(4-(3-(5-amino-9-fluoro-8-methoxy-[1,2,4]triazolo [1,5-c]quinazolin-2-yl)-5-methylpiperidin-1-yl)-3-methyl-1H-pyrazol-1-yl)-2-methylpropan-1-ol], the IC50 on human A2A receptors turned out to be 0.0239 µM; against human A2B receptors it was 1.44 µM.
On the same counts, the results for `COc1cc(F)cc2c1nc(N)n1nc([C@@H]3CCCN(c4cnn(C(C)C(C)O)c4C)C3)nc21` (single isomer, unassigned) [Example 193, (2S,3S or 2R,3R)-3-(4-((R)-3-(5-amino-9-fluoro-7-methoxy-[1,2,4]triazolo[1,5-c]quinazolin-2-yl)piperidin-1-yl)-5-methyl-1H-pyrazol-1-yl)butan-2-ol] are 0.0013 µM and 0.251 µM.
On the same counts, the results for `CC(O)C(C)(C)n1cc(N2CCC[C@@H](c3nc4c5cc(F)cc(F)c5nc(N)n4n3)C2)cn1` (single isomer, unassigned) [Example 246, (R or S)-3-(4-((R)-3-(5-amino-7,9-difluoro-[1,2,4]triazolo [1,5-c]quinazolin-2-yl)piperidin-1-yl)-1H-pyrazol-1-yl)-3-methylbutan-2-ol] are 0.0032 µM and 0.0213 µM.
On the same counts, the results for `COc1cc2nc(N)n3nc([C@@H]4CCCN(c5cnn(C(C)(C)CO)c5)C4)nc3c2cc1F` [Example 151, (R)-2-(4-(3-(5-amino-9-fluoro-8-methoxy-[1,2,4]triazolo[1,5-c]quinazolin-2-yl)piperidin-1-yl)-1H-pyrazol-1-yl)-2-methylpropan-1-ol] are 0.0038 µM and 0.0569 µM.
For `CC(O)C(C)n1cc(N2CCC[C@@H](c3nc4c5cc(F)cc(F)c5nc(N)n4n3)C2)cn1` (single isomer, unassigned) [Example 197, (2S,3S or 2R,3R)-3-(4-((R)-3-(5-amino-7,9-difluoro-[1,2,4]triazolo[1,5-c]quinazolin-2-yl)piperidin-1-yl)-1H-pyrazol-1-yl)butan-2-ol], the IC50 was determined as 0.0064 µM against human A2A receptors and 0.093 µM on human A2B receptors.
In the case of `COc1cc2nc(N)n3nc([C@@H]4CCCN(c5cnn(C(C)C(C)O)c5)C4)nc3c2cc1F` (single isomer, unassigned) [Example 188, (2R,3R or 2S,3S)-3-(4-((R)-3-(5-amino-9-fluoro-8-methoxy-[1,2,4]triazolo[1,5-c]quinazolin-2-yl)piperidin-1-yl)-1H-pyrazol-1-yl)butan-2-ol], the IC50 against human A2A receptors was 0.0015 µM; against human A2B receptors, 0.0531 µM.
On the same counts, the results for `COc1cc(F)cc2c1nc(N)n1nc(C3CC(C)CN(c4cnn(CC(C)(C)O)c4)C3)nc21` (single isomer, unassigned) [Example 160, 1-(4-((3S,5R or 3R,5S)-3-(5-amino-9-fluoro-7-methoxy-[1,2,4]triazolo[1,5-c]quinazolin-2-yl)-5-methylpiperidin-1-yl)-1H-pyrazol-1-yl)-2-methylpropan-2-ol] are 0.0087 µM and 0.648 µM.
The corresponding values for `COc1cc2nc(N)n3nc([C@@H]4CCCN(c5cnn(CCC(C)(C)O)c5)C4)nc3c2cc1F` [Example 152, (R)-4-(4-(3-(5-amino-9-fluoro-8-methoxy-[1,2,4]triazolo[1,5-c]quinazolin-2-yl)piperidin-1-yl)-1H-pyrazol-1-yl)-2-methylbutan-2-ol] are 0.0059 µM and 0.371 µM.
On the same counts, the results for `C[C@H]1CC[C@@H](c2nc3c4cc(F)cc(F)c4nc(N)n3n2)CN1c1cnn(C(C)(CO)CO)c1` (single isomer, unassigned) [Example 248, 2-(4-((2S,5R or 2R,5S)-5-(5-amino-7,9-difluoro-[1,2,4]triazolo[1,5-c]quinazolin-2-yl)-2-methylpiperidin-1-yl)-1H-pyrazol-1-yl)-2-methylpropane-1,3-diol] are 0.0014 µM and 0.0084 µM.
Regarding “(R or S)-1-(4-((2S,5R or 2R5S)-5-(5-amino-9-fluoro- 8-methoxy-[1,2,4]triazolo[1,5-c]quinazolin-2-yl)-2- methylpiperidin-1-yl)-1H-pyrazol-1-yl)propan-2-ol [Example 240]”, the values for the IC50 against human A2A receptors and against human A2B receptors were 0.0012 µM and 0.0226 µM, respectively.
On to `Cc1c(N2CC(C)CC(c3nc4c5cc(F)cc(F)c5nc(N)n4n3)C2)cnn1C(C)C(C)O` (single isomer, unassigned) [Example 219, (2S,3S or 2R,3R)-3-(4-((3S,5R or 3R,5S)-3-(5-amino-7,9-difluoro-[1,2,4]triazolo[1,5-c]quinazolin-2-yl)-5-methylpiperidin-1-yl)-5-methyl-1H-pyrazol-1-yl)butan-2-ol], for which it took 0.247 µM to reach half-maximal inhibition on human A2A receptors (IC50). In addition, at human A2B receptors (at 10000 nM), the “A2B cAMP % Inh. @10000 nM” value was found to be 27% Inh.
For the compound `COc1cc(F)cc2c1nc(N)n1nc(C3CC(C)CN(c4cn(C(C)(C)CO)nc4C)C3)nc21` (single isomer, unassigned) [Example 175, 2-(4-((3R,5S or 3S,5R)-3-(5-amino-9-fluoro-7-methoxy-[1,2,4]triazolo[1,5-c]quinazolin-2-yl)-5-methylpiperidin-1-yl)-3-methyl-1H-pyrazol-1-yl)-2-methylpropan-1-ol], the IC50 came to 0.0302 µM against human A2A receptors and 2 µM on human A2B receptors.
Consider `Cc1nn(C(C)C(C)O)cc1N1CC(C)CC(c2nc3c4cc(F)cc(F)c4nc(N)n3n2)C1` (single isomer, unassigned) [Example 213, (2R,3R or 2S,3S)-3-(4-((3R,5S or 3S,5R)-3-(5-amino-7,9-difluoro-[1,2,4]triazolo[1,5-c]quinazolin-2-yl)-5-methylpiperidin-1-yl)-3-methyl-1H-pyrazol-1-yl)butan-2-ol], for which the IC50 is 0.331 µM on human A2A receptors and over 10 µM against human A2B receptors.
The corresponding values for `COc1cc2nc(N)n3nc([C@H]4C[C@@H](C)CN(c5cnn(CC(C)(C)O)c5)C4)nc3c2cc1F` (single isomer, unassigned) [Example 158, 1-(4-((3S,5R or 3R,5S)-3-(5-amino-9-fluoro-8-methoxy-[1,2,4]triazolo[1,5-c]quinazolin-2-yl)-5-methylpiperidin-1-yl)-1H-pyrazol-1-yl)-2-methylpropan-2-ol] are 0.0011 µM and 0.0329 µM.
For the compound `COc1cc(F)cc2c1nc(N)n1nc([C@@H]3CCCN(c4cnn(C(C)(C)C(C)O)c4)C3)nc21` (single isomer, unassigned) [Example 244, (R or S)-3-(4-((R)-3-(5-amino-9-fluoro-7 methoxy-[1,2,4]triazolo[1,5-c]quinazolin-2-yl)piperidin-1-yl)-1H-pyrazol-1-yl)-3-methylbutan-2-ol], the IC50 at human A2A receptors is 0.0009 µM; against human A2B receptors, 0.0188 µM.
Turning to `CC1CCC(c2nc3c4cc(F)cc(F)c4nc(N)n3n2)CN1c1cnn(CC(C)(CO)CO)c1` (single isomer, unassigned) [Example 261], the IC50 came to 0.0866 µM at human A2A receptors and 1.47 µM on human A2B receptors.
On the same counts, the results for `COc1cc2nc(N)n3nc(C4CCC(C)N(c5cnn(CC(C)(C)N)c5)C4)nc3c2cc1F` (single isomer, unassigned) [Example 263, 2-((3S,6R or 3R,6S)-1-(1-(2-amino-2-methylpropyl)-1H-pyrazol-4-yl)-6-methylpiperidin-3-yl)-9-fluoro-8-methoxy-[1,2,4]triazolo[1,5-c]quinazolin-5-amine] are 0.026 µM and 0.511 µM.
The corresponding values for `Cc1c(N2CC(C)CC(c3nc4c5cc(F)cc(F)c5nc(N)n4n3)C2)cnn1C(C)C(C)O` (single isomer, unassigned) [Example 218, (2R,3R or 2S,3S)-3-(4-((3S,5R or 3R,5S)-3-(5-amino-7,9-difluoro-[1,2,4]triazolo[1,5-c]quinazolin-2-yl)-5-methylpiperidin-1-yl)-5-methyl-1H-pyrazol-1-yl)butan-2-ol] are 0.236 µM and 5.78 µM.

What is called IC50 is the concentration that gives 50% inhibition. A high value points to weaker potency.
